Reference: patent US8791100B2 (Novartis AG, priority 2010, dated 2014)

What follows are compounds tested against human S1P1 receptors (Homo sapiens (Human), UniProt P21453) (assay: Human S1P1 Receptor Calcium FLIPR Antagonist Assay (HeLa Gα16 S1P1)). Details: relative antagonism vs probing agonist GNF-AC-1 at EC80, HeLa-S1P1/Gα16 cells.
Format: cell-based
Source text: Human S1P1 Receptor Calcium FLIPR Antagonist Assay
The assay measures intracellular changes of Ca^2+ mediated by the synthetic probing agonist 3-{[2-(2-Trifluoromethyl-biphenyl-4-yl)-benzo[b]thiophen-5-ylmethyl]-amino}-propionic acid (GNF-AC-1) in the HeLa-S1P1/Gα16 cell clone 1: HeLa (human cervix carcinoma, ATCC CCL2) cells stably expressing N-terminally myc-tagged human S1P1 receptors (GenBank™ accession No. NM_001400; UNIPROT P21453) and promiscuous Gα16 protein (GenBank™ accession number M63904, Swissprot P30679) are cultured at 37° C., 5% CO2, and 95% relative humidity. The cells are plated in 384 well black plates (10′000 cells per well). After 24 hours the cells are loaded with Fluo-4-AM (1.6 μM in HBSS and 2.5 mM probenicid) for 1 hour at 37° C. After washing, the cells are transferred to the FLIPR. The test compounds are added at different concentrations (≦100 μM) in HBSS in the presence of 0.1% BSA and changes in fluorescence are recorded (indication of agonism). The probing agonist is added 20-30 minutes afterwards to the wells at a concentration giving 80% of the maximal activity (EC80). After each addition, time points are collected as follows: 20 time points (2 seconds) before the addition of the agonist (Fmin) and 60 time points (1 or 2 seconds) after the addition of the probing agonist. This allows the determination of the maximal fluorescence (Fmax). The ratio (Fmax−Fmin)/Fmin is plotted against the log of the concentration of the test compounds and the IC50 (relative antagonism) is calculated using the XLfit-4 software. […] A concentration-response curve of the probing agonist is determined on each plate in parallel.

Sequence of human S1P1 receptors (P21453 whole entry): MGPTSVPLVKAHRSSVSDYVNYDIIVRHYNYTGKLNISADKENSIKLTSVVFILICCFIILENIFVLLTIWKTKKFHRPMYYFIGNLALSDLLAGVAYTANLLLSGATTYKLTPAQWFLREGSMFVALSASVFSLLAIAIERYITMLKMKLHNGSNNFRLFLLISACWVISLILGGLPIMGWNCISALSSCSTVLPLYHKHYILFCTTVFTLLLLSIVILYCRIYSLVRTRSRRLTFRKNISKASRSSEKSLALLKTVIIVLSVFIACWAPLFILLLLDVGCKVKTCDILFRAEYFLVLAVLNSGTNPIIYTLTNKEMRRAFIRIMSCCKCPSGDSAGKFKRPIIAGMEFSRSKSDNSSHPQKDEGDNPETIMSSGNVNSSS

Compound	IC50 [nM]
CC[C@@H](Nc1cccc(CN2CC(C(=O)O)C2)c1F)c1ccc(Cl)c(C)c1 [Example 24, 1-{3-[(R)-1-(4-Chloro-3-methyl-phenyl)-propylamino]-2-fluoro-benzyl}-azetidine-3-carboxylic acid]	1.9
CC[C@@H](Nc1cccc(CN2CC(C(=O)O)C2)n1)c1ccc(Cl)c(C)c1 [Example 74, 1-{6-[(R)-1-(4-Chloro-3-methyl-phenyl)-propylamino]-pyridin-2-ylmethyl}-azetidine-3-carboxylic acid]	14.1
Cc1ccc(N[C@H](C)c2cc(C)c(Cl)c(C)c2)cc1CNCCC(=O)O [Example 47, 3-{5-[(R)-1-(4-Chloro-3,5-dimethyl-phenyl)-ethylamino]-2-methyl-benzylamino}-propionic acid]	1.6
CCc1ccc(N[C@H](CC)c2ccc(Cl)c(C)c2)cc1CN1CC(C(=O)O)C1 [Example 37, 1-{5-[(R)-1-(4-Chloro-3-methyl-phenyl)-propylamino]-2-ethyl-benzyl}-azetidine-3-carboxylic acid]	2.5
CC[C@@H](Nc1cccc(CN2CC(C(=O)O)C2)c1)c1ccc2c(Cl)cccc2c1 [Example 20, 1-{3-[(R)-1-(5-Chloro-naphthalen-2-yl)-propylamino]-benzyl}-azetidine-3-carboxylic acid]	2
Cc1cc([C@H](Nc2ccc(Cl)c(CN3CC(C(=O)O)C3)c2)C(F)(F)F)ccc1Cl [Example 68]	0.7
CC[C@@H](Nc1cccc(CN2CC(C(=O)O)C2)c1)c1cc(C)c(Cl)c(C)c1 [Example 18, 1-{3-[(R)-1-(4-Chloro-3,5-dimethyl-phenyl)-propylamino]-benzyl}-azetidine-3-carboxylic acid]	1.9
CC[C@@H](Nc1ccnc(CN2CC(C(=O)O)C2)c1)c1ccc(Cl)c(C)c1 [Example 78, 1-{4-[(R)-1-(4-Chloro-3-methyl-phenyl)-propylamino]-pyridin-2-ylmethyl}-azetidine-3-carboxylic acid]	0.8
CCC(Nc1ccc(C)c(C(C)N2CC(C(=O)O)C2)c1)c1ccc(Cl)c(C)c1 (stereo not drawn) [Example 10, 1-(1-{5-[1-(4-Chloro-3-methyl-phenyl)-propylamino]-2-methyl-phenyl}-ethyl)-azetidine-3-carboxylic acid]	1.6
CCC(c1cccc(N[C@H](CC)c2ccc(Cl)c(C)c2)c1)N1CC(C(=O)O)C1 (stereo partly drawn) [Example 13, 1-(1-{3-[(R)-1-(4-Chloro-3-methyl-phenyl)-propylamino]-phenyl}-propyl)-azetidine-3-carboxylic acid]	4.7

Further lines, results first:

IC50 [nM]	Compound
0.1	CC[C@@H](Nc1cc(CNCCC(=O)O)c(Cl)cn1)c1ccc(Cl)c(C)c1 [Example 58, 3-({5-Chloro-2-[(R)-1-(4-chloro-3-methyl-phenyl)-propylamino]-pyridin-4-ylmethyl}-amino)-propionic acid]
0.8	Cc1cc([C@H](Nc2cccc(CN3CC(C(=O)O)C3)c2)C(F)(F)F)ccc1Cl [Example 67, 1-{3-[(S)-1-(4-Chloro-3-methyl-phenyl)-2,2,2-trifluoro-ethylamino]-benzyl}-azetidine-3-carboxylic acid]
0.8	Cc1cc([C@H](Nc2ccc(C(F)(F)F)c(CN3CC(C(=O)O)C3)c2)C(F)(F)F)ccc1Cl [Example 69, 1-{5-[(S)-1-(4-Chloro-3-methyl-phenyl)-2,2,2-trifluoro-ethylamino]-2-trifluoromethyl-benzyl}-azetidine-3-carboxylic acid]
3	CC[C@@H](Nc1ccc(C)c(CN(C)CCC(=O)O)c1)c1cc(C)c(Cl)c(C)c1 [Example 82, 3-({5-[(R)-1-(4-Chloro-3,5-dimethyl-phenyl)-propylamino]-2-methyl-benzyl}-methyl-amino)-propionic acid]
1.3	Cc1cc([C@@H](C)Nc2ccc(Cl)c(CN3CC[C@@H](C(=O)O)C3)c2)cc(C)c1Cl [Example 46, (R)-1-{2-Chloro-5-[(R)-1-(4-chloro-3,5-dimethyl-phenyl)-ethylamino]-benzyl}-pyrrolidine-3-carboxylic acid]
